From US10315999B2, “Processes for the preparation of pesticidal compounds” (Dow AgroSciences LLC, priority 2013, dated 2019) come the findings set out here.

Molecules are shown by their SMILES. Structures can show the parent of a compound that is named as a salt. Where two headings read alike, the source gives them in different places.

In assay [1] the test system is Green Peach Aphid (Myzus persicae) (MYZUPE). The assay is described as follows: Bioassay on Green Peach Aphid (GPA), cabbage seedling foliar spray. The settings on record: 72 h, read-out: MYZUPE rating (% Control of Mortality, Abbott corrected). It counts as in vivo. On the procedure:
Several molecules disclosed herein were tested against GPA using procedures described below.
Cabbage seedling grown in 3-in pots, with 2-3 small (3-5 cm) true leaves, were used as test substrate. The seedlings were infested with […] (wingless adult and nymph stages) one day prior to chemical application. Four pots with individual seedlings were used for each treatment. Test compounds (2 mg) were dissolved in 2 mL of acetone/MeOH (1:1) solvent, forming stock solutions of 1000 ppm test compound. The stock solutions were diluted 5× with 0.025% Tween 20 in water to obtain the solution at 200 ppm test compound. A hand-held aspirator-type sprayer was used for spraying a solution to both sides of the cabbage leaves until runoff. Reference plants (solvent check) were sprayed with the diluent only containing 20% by volume acetone/MeOH (1:1) solvent. Treated plants were held in a holding room for three days at approximately 25° C. and ambient relative humidity (RH) prior to grading. Evaluation was conducted by counting the number of live aphids per plant under a microscope. Percent Control was measured by using Abbott's correction formula (W. S. Abbott, “A Method of Computing the Effectiveness of an Insecticide” J. Econ. Entomol 18 (1925), pp. 265-267) as follows. Corrected % Control=100*(X−Y)/X • where • X=No. of live aphids on solvent check plants and • Y=No. of live aphids on treated plants
The results are indicated in the table entitled “Table 1: GPA (MYZUPE) and sweetpotato whitefly-crawler (BEMITA) Rating Table”.

Assay [2] concerns Sweetpotato Whitefly Crawler (Bemisia tabaci) (BEMITA). Description: Bioassay on Sweetpotato Whitefly Crawler, cotton plant foliar spray. It counts as in vivo. The settings on record: read-out: BEMITA rating (% Control of Mortality, Abbott corrected). On the procedure: Cotton plants grown in 3-inch pots, with 1 small (3-5 cm) true leaf, were used at test substrate. The plants were placed in a room with whitely adults. Adults were allowed to deposit eggs for 2-3 days. After a 2-3 day egg-laying period, plants were taken from the adult whitefly room. Adults were blown off leaves using a hand-held Devilbliss sprayer (23 psi). Plants with egg infestation (100-300 eggs per plant) were placed in a holding room for 5-6 days at 82° F. and 50% RH for egg hatch and crawler stage to develop. Four cotton plants were used for each treatment. Compounds (2 mg) were dissolved in 1 mL of acetone solvent, forming stock solutions of 2000 ppm. The stock solutions were diluted 10× with 0.025% Tween 20 in water to obtain a test solution at 200 ppm. A hand-held Devilbliss sprayer was used for spraying a solution to both sides of cotton leaf until runoff. Reference plants (solvent check) were sprayed with the diluent only. Treated plants were held in a holding room for 8-9 days at approximately 82° F. and 50% RH prior to grading. Evaluation was conducted by counting the number of live nymphs per plant under a microscope.

Setting [3] is: 200 ppm spray on cabbage seedlings, live aphids counted after three days.
Where [4] appears, read: 200 ppm spray on cotton plants, live nymphs counted after 8-9 days.

As for `Nc1c[nH]nc1Cl` [Compound 1a, 3-Chloro-1H-pyrazol-4-amine hydrochloride], the mortality at 200 ppm in assay [1] and in assay [2] was 0 to 80% throughout.
On to `CC(=O)Nc1c[nH]nc1Cl` [Compound 1b, N-(3-Chloro-1H-pyrazol-4-yl)acetamide], for which the mortality at 200 ppm in assay [1] (setting [3]) and in assay [2] (setting [4]) was 0 to 80% in each case.
Take `CC(=O)Nc1cn(-c2cccnc2)nc1Cl` [Compound 1c, N-(3-Chloro-1-(pyridin-3-yl)-1H-pyrazol-4-yl)acetamide]: the mortality at 200 ppm in assay [1] (setting [3]) and in assay [2] (setting [4]) was 0 to 80% each time.
`CCNc1cn(-c2cccnc2)nc1Cl` [Compound 1d, 3-Chloro-N-ethyl-1-(pyridin-3-yl)-1H-pyrazol-amine]: the mortality at 200 ppm in assay [1] (setting [3]) and in assay [2] (setting [4]) was 0 to 80% in each case.
On to `CCN(C(=O)CCSCCC(F)(F)F)c1cn(-c2cccnc2)nc1Cl` [Compound 5.1, N-(3-Chloro-1-(pyridin-3-yl)-1H-pyrazol-4-yl)-N-ethyl-3-((3,3,3-trifluoropropyl)thio)propanamide], for which the mortality at 200 ppm in assay [1] (setting [3]) and in assay [2] (setting [4]) was 80 to 100% each time.
In the case of `CCN(C(=O)CC[S+]([O-])CCC(F)(F)F)c1cn(-c2cccnc2)nc1Cl` (stereo not drawn) [Compound 8.1, N-(3-Chloro-1-(pyridin-3-yl)-1H-pyrazol-4-yl)-N-ethyl-3-((3,3,3-trifluoropropyl)sulfoxo)propanamide], the mortality at 200 ppm in assay [1] (setting [3]) and in assay [2] (setting [4]) was 80 to 100% throughout.
